Earlier results, collected in patent US20070105758A1 (priority 2005, published 2007).

Details: oral route in sensitive individuals

SMILES: NCCc1c[nH]cn1 [histamine]
- histamine concentration known to be biologically active: > 5 nM
